Source: patent US7875282B2 (Cordis Corporation, priority 2004, dated 2011)
Each block holds one compound with its values, some of them ahead of it.

Key:
[1] = system: human coronary artery smooth muscle cells; assay: Anti-proliferative activity in non-synchronized cultured cells stimulated with two percent fetal bovine serum; type: cell-based; conditions: for effect of addition on the anti-proliferative activity of rapamycin: non-synchronized cells, added to rapamycin
Excerpt: The multiple curves represent various concentrations of mycophenolic acid ranging from zero to one thousand nanomolar concentrations.
FIG. 58 illustrates, in graphical format, the anti-proliferative activity of cladribine in non-synchronized cultured human coronary artery smooth muscle cells stimulated with two percent fetal bovine serum.
The multiple curves represent various concentrations of cladribine ranging from zero to nine hundred nanomolar concentrations.

[2] = In vivo release kinetics from rapamycin, cladribine and polymer coating, porcine pharmacokinetics studies; set-up: species or system Yorkshire pigs; conditions: Bx Velocity stents, BMA topcoat
Excerpt: (§1) The basecoat is applied to Bx Velocity® stents and implanted into Yorkshire pigs.
as §1

[3] = system: human smooth muscle cells; assay: PDGF-stimulated proliferation of human smooth muscle cells, cell count; type: cell-based; conditions: from IC50 values
Description: To assess the ability of cladribine to prevent cell proliferation, human smooth muscle or endothelial cells (Clonetics, Walkersville, Md.) were seeded at a density of 2000 cells/cm^2 (approximately 3600 cells/well) into each well of 12-well plates and cultured with 1.5 ml of growth medium containing five percent fetal calf serum (FCS). After twenty-four hours, the growth medium was changed and fresh medium containing 10 ng/ml platelet-derived growth factor AB (PDGF AB; LIFE Technologies), as well as various concentrations of cladribine (0.001-10,000 nM) were added with triplicate wells. Medium was replaced with fresh cladribine-containing medium after three days. On day six, cells were detached by trypsinization to yield a cell suspension, lightly centrifuged to pellet and then counted manually using a Neubauer hemocytometer system. Cell viability was assessed by trypan blue exclusion.

[4] = system: human coronary artery smooth muscle cells; assay: Anti-proliferative activity in synchronized cultured cells stimulated with two percent fetal bovine serum; type: cell-based; conditions: for effect of addition on the anti-proliferative activity of rapamycin: added to rapamycin
Excerpt: The multiple curves represent various concentrations of topotecan ranging from zero to three hundred nanomolar concentrations.
The multiple curves represent various concentrations of etoposide ranging from zero to eight hundred nanomolar concentrations.
The multiple curves represent various concentrations of Panzem® ranging from zero to 100 micromolar concentrations.

tumor cell lines = conditions: Woo et al., J. Med Chem 2002; cited from earlier work
[5] = system: human coronary artery smooth muscle cell; assay: In vitro cell culture study of coronary artery smooth muscle cell proliferation; type: cell-based
Excerpt: FIG. 51 is a graph of the inhibition of coronary artery smooth muscle cells by trichostatin A in a cell culture study.

[6] = In vivo release kinetics from rapamycin, mycophenolic acid and polymer coating, porcine pharmacokinetics studies; conditions: one hundred eighty micro grams each drug

elution from EVA/BMA basecoat compared with rapamycin [2]: elutes more rapidly than rapamycin
SMILES: Nc1nc(Cl)nc2c1ncn2[C@H]1C[C@H](O)[C@@H](CO)O1 [cladribine, 2-chlorodeoxyadenosine]
effect of addition on the anti-proliferative activity of rapamycin [1]: increases the percent inhibition of rapamycin alone
inhibition of human coronary artery smooth muscle cell proliferation ([1]; non-synchronized, two percent fetal bovine serum): completely inhibits
potency as inhibitor of smooth muscle cells relative to endothelial cells [3]: approximately twice

SMILES: CC[C@@]1(O)C(=O)OCc2c1cc1n(c2=O)Cc2cc3c(CN(C)C)c(O)ccc3nc2-1 [topotecan]
effect of addition on the anti-proliferative activity of rapamycin [4]: increases the percent inhibition of rapamycin alone

SMILES: COc1cc([C@@H]2c3cc4c(cc3[C@@H](O[C@@H]3O[C@@H]5CO[C@@H](C)O[C@H]5[C@H](O)[C@H]3O)[C@H]3COC(=O)[C@H]23)OCO4)cc(OC)c1O [etoposide]
effect of addition on the anti-proliferative activity of rapamycin [4]: increases the percent inhibition of rapamycin alone

SMILES: COc1cc2c(cc1O)CC[C@@H]1[C@@H]2CC[C@]2(C)[C@@H](O)CC[C@@H]12 [Panzem®, 2-methoxyestradiol]
effect of addition on the anti-proliferative activity of rapamycin [4]: increases the percent of inhibition of rapamycin alone
anti-proliferative activity ([4]; agent alone): extremely effective inhibitor of human coronary artery smooth muscle cell proliferation

SMILES: CC(/C=C/C(=O)NO)=C\[C@@H](C)C(=O)c1ccc(N(C)C)cc1 [trichostatin A]
anti-proliferative IC50's (tumor cell lines): low nM range
inhibition of human coronary artery smooth muscle cell proliferation [5]: completely inhibit
IC50 ([5]; read-out: anti-proliferative IC50): ~6 nM

SMILES: COc1c(C)c2c(c(O)c1C/C=C(\C)CCC(=O)O)C(=O)OC2 [mycophenolic acid]
effect of addition on the anti-proliferative activity of rapamycin [1]: potentiates the anti-proliferative activity of rapamycin
elution from EVA/BMA basecoat compared with rapamycin [6]: elutes more completely over a shorter duration than the rapamycin
